Test results as given in patent US20130253019A1, “LYSOPHOSPHATIDIC ACID RECEPTOR ANTAGONISTS FOR THE TREATMENT OF CONDITIONS OR DISEASES OF THE EYE” (priority 2010, published 2013).
Each block holds one compound with its values, some of them ahead of it.

Columns and labels:
[1] = biological target: T1, Human LPA1 (Homo sapiens, UniProt Q92633); test: LPA1 calcium flux assay; type: cell-based; settings: CHO cells expressing human LPA1, 10 nM LPA; read-out: Ca Flux IC50 LPA1
T1 construct: the full-length cDNA for human LPA1 was obtained by PCR of the reverse transcription reaction; expressed in transfected cells
T1 sequence (Q92633 whole entry): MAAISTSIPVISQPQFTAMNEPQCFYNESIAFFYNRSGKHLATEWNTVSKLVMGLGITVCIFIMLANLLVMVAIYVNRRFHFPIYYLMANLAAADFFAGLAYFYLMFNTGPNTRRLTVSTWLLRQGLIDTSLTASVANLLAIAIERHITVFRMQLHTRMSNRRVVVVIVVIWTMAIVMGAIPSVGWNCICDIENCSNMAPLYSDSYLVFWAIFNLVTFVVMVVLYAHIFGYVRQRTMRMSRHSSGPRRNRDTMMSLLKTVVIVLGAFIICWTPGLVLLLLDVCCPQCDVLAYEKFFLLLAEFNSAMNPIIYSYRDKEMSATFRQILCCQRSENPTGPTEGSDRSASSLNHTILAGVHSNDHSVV
Description: A 1.1 kb cDNA encoding the human LPA1 receptor was cloned from human lung. Human lung RNA (Clontech Laboratories, Inc. USA) was reverse transcribed using the RETROscript kit (Ambion, Inc.) and the full-length cDNA for human LPA1 was obtained by PCR of the reverse transcription reaction. The nucleotide sequence of the cloned human LPA1 was determined by sequencing and confirmed to be identical to the published human LPA1 sequence (An et al. Biochem. Biophys. Res. Commun. 231:619 (1997). The cDNA was cloned into the pcDNA5/FRT expression plasmid and transfected in CHO cells using lipofectamine 2000 (Invitrogen Corp., USA). Clones stably expressing human LPA1 were selected using hygromycin and identified as cells that show Ca-influx in response to LPA.
(§1) Human LPA1 or LPA3 expressing CHO cells are seeded at 20,000-45,000 cells per well in a 96-well poly-D-lysine coated plate one or two days before the assay. Prior to the assay, the cells are washed once with PBS and then cultured in serum-free media for at least 6 hrs and up to 24 hrs. On the day of the assay, a calcium indicator dye (Calcium 5, Molecular Devices) in assay buffer (HBSS with Ca^2+ and Mg^2+ and containing 20 mM Hepes and 0.3% fatty-acid free human serum albumin) is added to each well and incubation continued for 1 hour at room temperature. 10 μl of test compounds in 2.5% DMSO are added to the cells and incubation continued at room temperature for 30 minutes. Cells are the stimulated by the addition of 10 nM LPA and intracellular Ca^2+ measured using the Flexstation 3 (Molecular Devices). IC50s are determined using Symyx Assay Explorer analysis of drug titration curves.

[2] = biological target: T2, human LPA2 (Homo sapiens, UniProt Q9HBW0); test: LPA2 calcium flux assay; type: cell-based; settings: BT-20 cells or B103 cells transiently expressing human LPA2; read-out: Ca Flux IC50 LPA2
T2 construct: expressed in transfected cells; host or cells: B103 cells (transient), or alternatively BT-20 human breast cancer cells (endogenous)
T2 sequence (Q9HBW0 whole entry): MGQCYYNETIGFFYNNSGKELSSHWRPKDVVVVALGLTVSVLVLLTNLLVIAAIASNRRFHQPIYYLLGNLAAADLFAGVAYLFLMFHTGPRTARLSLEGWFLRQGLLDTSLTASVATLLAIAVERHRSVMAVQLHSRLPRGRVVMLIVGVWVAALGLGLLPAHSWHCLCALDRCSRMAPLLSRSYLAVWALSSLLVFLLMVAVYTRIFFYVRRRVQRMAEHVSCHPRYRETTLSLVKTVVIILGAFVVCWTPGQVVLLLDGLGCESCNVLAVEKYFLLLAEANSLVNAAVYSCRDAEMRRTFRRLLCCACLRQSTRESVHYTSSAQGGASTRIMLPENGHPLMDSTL
Description: An expression vector encoding the human LPA2 cDNA was transiently transfected into B103 cells using Lipofectamine™ 2000 (Invitrogen) following the manufacturers instruction. On the day before the assay, 30,000-35,000 cells/well were seeded together with 0.2 μl lipofectamine 2000 and 0.2 μg human LPA2 expression vector in 96-well Poly-D-Lysine coated black-wall clear-bottom plates (BD BioCoat) in DMEM+10% FBS. Following an overnight culture, cells were washed once with PBS then cultured in serum-free media for 4 hours prior to start of the calcium flux assay.
LPA2 calcium flux is measured using at least one of two different assays. In one assay, BT-20 human breast cancer cells are seeded at 25,000-35,000 cells per well in 150 μl complete media on Poly-D-Lysine coated black-wall clear-bottom plates. Following an overnight culture, cells are washed once with PBS then serum starved for 4-6 hours prior to the assay. On the day of the assay, a calcium indicator dye (Calcium 5, Molecular Devices) in assay buffer (HBSS with Ca^2+ and Mg^2+ and containing 20 mM Hepes and 0.3% fatty-acid free human serum albumin) is added to each well and incubation continued for 15 minutes at 37° C. 25 μl of test compounds in 2.5% DMSO are added to the cells and incubation continued at 37° C. for 15-30 minutes. Cells are the stimulated by the addition of 100 nM LPA and intracellular Ca^2+ measured using the Flexstation 3 (Molecular Devices). IC50s are determined using Symyx Assay Explorer analysis of drug titration curves In the second assay, B103 cells transiently expressing huma LPA2 are serum starved for 4 hours. A calcium indicator dye (Calcium 4, Molecular Devices) in assay buffer (HBSS with Ca^2+ and Mg^2+ and containing 20 mM Hepes and 0.3% fatty-acid free human serum albumin) is then added to each well and incubation continued for 1 hour at 37° C. 10 μl of test compounds in 2.5% DMSO are added to the cells and incubation continued at room temperature for 30 minutes. Cells are the stimulated by the addition of 10 nM LPA and intracellular Ca^2+ measured using the Flexstation 3 (Molecular Devices). IC50s are determined using Symyx Assay Explorer analysis of drug titration curves.

[3] = biological target: LPA4 (Homo sapiens, UniProt Q99677); test: LPA4 Ca flux assay; type: cell-based
Chain of LPA4 (Q99677 whole entry, species assumed): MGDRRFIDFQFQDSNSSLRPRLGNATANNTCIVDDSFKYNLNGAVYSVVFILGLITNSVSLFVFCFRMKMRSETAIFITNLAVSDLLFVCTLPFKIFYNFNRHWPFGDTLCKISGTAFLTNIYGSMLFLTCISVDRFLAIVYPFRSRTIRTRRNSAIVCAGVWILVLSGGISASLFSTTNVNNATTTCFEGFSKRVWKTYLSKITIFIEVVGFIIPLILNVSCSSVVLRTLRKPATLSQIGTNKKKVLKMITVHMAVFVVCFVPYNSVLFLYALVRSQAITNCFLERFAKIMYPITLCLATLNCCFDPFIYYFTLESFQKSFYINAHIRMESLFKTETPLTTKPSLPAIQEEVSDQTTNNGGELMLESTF

[4] = biological target: T3, Human LPA3 (Homo sapiens, UniProt Q9UBY5); test: LPA3 calcium flux assay; type: cell-based; settings: CHO cells expressing human LPA3, 10 nM LPA; read-out: Ca Flux IC50 LPA3
T3 construct: The full-length cDNA fragment for human LPA3 was obtained by PCR from the vector; expressed in transfected cells; cDNA from the Missouri S&T cDNA Resource Center
T3 sequence (Q9UBY5 1-353): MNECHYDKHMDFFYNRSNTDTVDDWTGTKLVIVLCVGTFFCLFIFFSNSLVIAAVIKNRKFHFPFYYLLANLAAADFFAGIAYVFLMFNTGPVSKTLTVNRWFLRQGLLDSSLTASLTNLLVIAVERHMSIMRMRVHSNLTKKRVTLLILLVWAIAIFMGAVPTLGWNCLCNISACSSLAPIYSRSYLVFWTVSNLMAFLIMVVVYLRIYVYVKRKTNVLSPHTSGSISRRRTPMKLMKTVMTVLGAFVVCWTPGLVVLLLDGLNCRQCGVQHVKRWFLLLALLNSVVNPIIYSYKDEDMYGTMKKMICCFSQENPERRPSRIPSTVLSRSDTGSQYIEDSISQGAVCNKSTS
Description: A vector containing the human LPA3 receptor cDNA was obtained from the Missouri S&T cDNA Resource Center (www.cdna.org). The full-length cDNA fragment for human LPA3 was obtained by PCR from the vector. The nucleotide sequence of the cloned human LPA3 was determined by sequencing and confirmed to be identical to the published human LPA3 sequence (NCBI accession number NM_012152). The cDNA was cloned into the pcDNA5/FRT expression plasmid and transfected in CHO cells using lipofectamine 2000 (Invitrogen Corp., USA). Clones stably expressing human LPA3 were selected using hygromycin and identified as cells that show Ca-influx in response to LPA.
as §1

[5] = biological target: LPA5 (Homo sapiens, UniProt Q9H1C0); test: LPA5 Ca flux assay; type: cell-based
Chain of LPA5 (Q9H1C0 whole entry, species assumed): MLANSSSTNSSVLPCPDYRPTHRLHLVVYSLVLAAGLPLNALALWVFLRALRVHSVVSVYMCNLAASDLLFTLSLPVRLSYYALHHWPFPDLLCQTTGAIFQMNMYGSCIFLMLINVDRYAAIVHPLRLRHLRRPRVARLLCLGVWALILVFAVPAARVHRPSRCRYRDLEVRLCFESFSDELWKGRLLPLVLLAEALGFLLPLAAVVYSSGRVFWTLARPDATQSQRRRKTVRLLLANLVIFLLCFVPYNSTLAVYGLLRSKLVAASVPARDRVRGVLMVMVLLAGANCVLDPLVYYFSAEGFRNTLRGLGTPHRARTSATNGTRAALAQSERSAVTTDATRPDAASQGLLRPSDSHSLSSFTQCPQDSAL

[6] = system: CNV lesion; settings: po, 30 mg/kg, 336 h

Structure (SMILES): Cc1noc(-c2ccc(-c3ccc(CC(=O)O)cc3)cc2)c1NC(=O)O[C@H](C)c1ccccc1Cl [Compound C, (R)-2-(4′-(4-((1-(2-chlorophenyl)ethoxy)carbonylamino)-3-methylisoxazol-5-yl)biphenyl-4-yl)acetic acid]
IC50 [1]: < 200 nM
IC50 [2]: > 1000 nM
IC50 [3]: > 1000 nM
IC50 [4]: > 1000 nM
IC50 [5]: > 1000 nM

Structure (SMILES): Cc1noc(-c2ccc(-c3ccc(C4(C(=O)NS(C)(=O)=O)CC4)cc3)cc2)c1NC(=O)O[C@H](C)c1ccccc1 [Compound D, {5-[4′-(1-Methanesulfonylaminocarbonyl-cyclopropyl)-biphenyl-4-yl]-3-methyl-isoxazol-4-yl}-carbamic acid (R)-1-phenyl-ethyl ester]
IC50 [1]: < 200 nM
IC50 [2]: 200 to 1000 nM
IC50 [3]: > 1000 nM
IC50 [4]: > 1000 nM
IC50 [5]: > 1000 nM

Structure (SMILES): Cc1noc(-c2ccc(-c3ccc(C4(C(=O)O)CC4)cc3)cc2)c1NC(=O)O[C@H](C)c1ccccc1Cl [Compound E, 1-(4′-{4-[(R)-1-(2-Chloro-phenyl)-ethoxycarbonylamino]-3-methyl-isoxazol-5-yl}-biphenyl-4-yl)-cyclopropanecarboxylic acid]
IC50 [1]: < 200 nM
IC50 [2]: > 1000 nM
IC50 [4]: 200 to 1000 nM
IC50 [5]: > 1000 nM

Further lines, with some results ahead:

IC50 [1]: < 200 nM
IC50 [2]: > 1000 nM
IC50 [3]: > 1000 nM
IC50 [4]: > 1000 nM
IC50 [5]: > 1000 nM
Structure (SMILES): Cc1noc(-c2ccc(-c3ccc(CC(=O)O)cc3)cc2)c1NC(=O)O[C@H](C)c1ccccc1 [Compound A, (R)-2-(4′-(3-methyl-4-((1-phenylethoxy)carbonylamino)isoxazol-5-yl)biphenyl-4-yl)acetic acid]

IC50 [1]: < 200 nM
IC50 [2]: > 1000 nM
IC50 [3]: > 1000 nM
IC50 [4]: > 1000 nM
IC50 [5]: > 1000 nM
Structure (SMILES): Cc1noc(-c2ccc(-c3ccc(C4(C(=O)O)CC4)cc3)cc2)c1NC(=O)O[C@H](C)c1ccccc1 [Compound B, (R)-1-(4′-(3-methyl-4-((1-phenylethoxy)carbonylamino)isoxazol-5-yl)biphenyl-4-yl)cyclopropanecarboxylic acid]
decrease of CNV lesion volume [6]: 11%

IC50 [1]: < 200 nM
IC50 [3]: > 1000 nM
IC50 [4]: > 1000 nM
Structure (SMILES): C[C@@H](OC(=O)Nc1cnoc1-c1ccc(-c2ccc(C3(C(=O)O)CC3)cc2)cc1)c1ccccc1 [Compound F, 1-{4′-[4-((R)-1-Phenyl-ethoxycarbonylamino)-isoxazol-5-yl]-biphenyl-4-yl}-cyclopropanecarboxylic acid]

IC50 [1]: < 200 nM
IC50 [2]: > 1000 nM
IC50 [3]: > 1000 nM
IC50 [4]: > 1000 nM
IC50 [5]: > 1000 nM
Structure (SMILES): Cc1noc(-c2ccc(-c3ccc(C4(c5nc(=O)o[nH]5)CC4)cc3)cc2)c1NC(=O)O[C@H](C)c1ccccc1 [Compound G, (3-Methyl-5-{4′-[1-(5-oxo-2,5-dihydro-[1,2,4]oxadiazol-3-yl)-cyclopropyl]-biphenyl-4-yl}-isoxazol-4-yl)-carbamic acid (R)-1-phenyl-ethyl ester]

IC50 [1]: < 200 nM
IC50 [2]: > 1000 nM
IC50 [3]: > 1000 nM
IC50 [4]: > 1000 nM
IC50 [5]: > 1000 nM
Structure (SMILES): Cc1noc(-c2ccc(-c3ccc(C4(c5nnn[nH]5)CC4)cc3)cc2)c1NC(=O)O[C@H](C)c1ccccc1 [Compound H, (3-Methyl-5-{4′-[1-(1H-tetrazol-5-yl)-cyclopropyl]-biphenyl-4-yl}-isoxazol-4-yl)-carbamic acid (R)-1-phenyl-ethyl ester]
